Reference: patent publication US6410792B1, “Amide derivatives and methods for using the same as selective neuropeptide Y receptor antagonists” (Bayer Corporation, priority 1997, dated 2002)
Structures can show the parent of a compound that is named as a salt. Where two headings read alike, the source gives them in different places.

Key:
[1] = target: T1, Y2 receptor (Homo sapiens, UniProt P49146); experiment: Y2 receptor binding assay ([125I]PYY, membrane protein); details: membrane protein, read-out: hNPY2 IC50
T1 sequence (P49146 1-381): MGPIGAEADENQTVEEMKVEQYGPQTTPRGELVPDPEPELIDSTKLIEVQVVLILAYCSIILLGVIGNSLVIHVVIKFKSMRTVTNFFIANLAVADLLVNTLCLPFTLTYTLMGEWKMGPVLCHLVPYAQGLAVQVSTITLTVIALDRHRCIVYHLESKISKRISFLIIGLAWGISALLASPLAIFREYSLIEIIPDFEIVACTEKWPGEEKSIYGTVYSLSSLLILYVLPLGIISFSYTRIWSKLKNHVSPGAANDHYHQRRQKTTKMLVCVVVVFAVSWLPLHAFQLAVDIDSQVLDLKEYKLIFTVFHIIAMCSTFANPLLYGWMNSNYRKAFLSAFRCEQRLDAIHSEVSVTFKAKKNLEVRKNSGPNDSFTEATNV
In short: (§1)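 Filtration binding with membrane protein and drug dilution, 2 h at room temperature with mixing, radioactivity counted by gamma or scintillation. Y2: 25 pM [125I]PYY in Krebs-Ringer bicarbonate pH 7.4 with 0.01% BSA, nonspecific by 1 μM NPY. Y4/PP1: 50 pM [125I]hPP in HEPES-buffered saline pH 7.4 with protease inhibitors and 0.3% BSA, nonspecific by 1 μM hPP.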

[2] = target: T2, Human NPY5 receptor (Homo sapiens, UniProt Q15761); experiment: Human NPY5 receptor binding assay ([125I]PYY, membrane protein)
T2 sequence (Q15761 1-445): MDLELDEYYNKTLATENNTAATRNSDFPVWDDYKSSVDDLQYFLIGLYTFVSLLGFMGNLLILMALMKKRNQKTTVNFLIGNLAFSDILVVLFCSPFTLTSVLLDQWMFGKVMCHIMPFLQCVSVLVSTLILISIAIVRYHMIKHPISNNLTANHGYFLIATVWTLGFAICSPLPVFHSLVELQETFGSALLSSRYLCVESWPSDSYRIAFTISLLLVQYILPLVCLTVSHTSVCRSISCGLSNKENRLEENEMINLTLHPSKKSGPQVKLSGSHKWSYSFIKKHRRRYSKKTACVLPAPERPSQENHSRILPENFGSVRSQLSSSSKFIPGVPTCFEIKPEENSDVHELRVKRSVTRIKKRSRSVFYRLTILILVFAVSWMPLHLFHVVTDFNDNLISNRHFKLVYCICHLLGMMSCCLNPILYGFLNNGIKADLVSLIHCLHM
In short: (§2)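 Membrane protein incubated 2 h at room temperature with 75-100 pM porcine [125I]PYY and compound in pH 7.4 Tris buffer with salts, 0.1% BSA and bacitracin. Nonspecific binding with 1 μM PYY. Filtration, then gamma or scintillation counting.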

[3] = target: T3, Rat NPY5 receptor (Rattus norvegicus, UniProt Q63634); experiment: Rat NPY5 receptor binding assay ([125I]PYY, membrane protein)
T3 sequence (Q63634 1-445): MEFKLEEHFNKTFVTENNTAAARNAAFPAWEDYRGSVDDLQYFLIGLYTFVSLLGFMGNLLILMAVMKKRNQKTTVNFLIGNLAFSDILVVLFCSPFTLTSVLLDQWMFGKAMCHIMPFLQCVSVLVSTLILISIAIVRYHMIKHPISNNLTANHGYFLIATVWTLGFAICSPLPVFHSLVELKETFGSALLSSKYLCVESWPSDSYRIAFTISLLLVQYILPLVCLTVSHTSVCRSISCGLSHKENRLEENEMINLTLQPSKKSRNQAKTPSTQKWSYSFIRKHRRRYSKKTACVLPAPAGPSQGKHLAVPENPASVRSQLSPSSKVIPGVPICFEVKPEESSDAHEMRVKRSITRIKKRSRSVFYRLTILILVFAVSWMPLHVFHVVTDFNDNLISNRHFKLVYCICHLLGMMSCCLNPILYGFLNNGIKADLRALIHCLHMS
In short: as §2

[4] = target: T3, Rat NPY5 receptor; experiment: Rat NPY5 cyclase assay (in vitro functional assay, forskolin-stimulated adenylate cyclase, cAMP); assay type: cell-based; details: percentage of forskolin-stimulated adenylate cyclase; for activity at 10 µM: 20 min, read-out: rNPY5 % FSAC (10 μM)
Protocol: D. Rat NYP5 Cyclase Assay (In Vitro Functional Assay)
Cells stably expressing the rat NPY5 receptor are resuspended in serum-free DMEM containing 10 mM HEPES (pH 7.4) and 1 mM isobutylmethylxanthine (IBMX). […] forskolin and drug dilution are then added to the cells. After a 20 minute incubation of the samples at 37° C, the assay is stopped by placing the samples in boiling water for 3 minutes. The cAMP produced in each sample is quantitated with a radioimmunoassay kit (NEN DuPont). Data are expressed as a percentage of forskolin-stimulated adenylate cyclase.

[5] = target: human Y4/PP1 receptor (Homo sapiens, UniProt P50391); experiment: Human Y4/PP1 receptor binding assay ([125I]human PP, membrane protein); details: [125I]human PP, membrane protein; read-out: hNPY4 IC50
In short: as §1

[6] = target: T4, Human NPY1 receptor (Homo sapiens, UniProt P25929); experiment: Human NPY1 receptor binding assay ([125I]PYY, SK-N-MC cells); details: [125I]PYY, SK-N-MC cells; read-out: hNPYI IC50
T4 construct: host or cells: SK-N-MC cells
T4 sequence (P25929 1-384): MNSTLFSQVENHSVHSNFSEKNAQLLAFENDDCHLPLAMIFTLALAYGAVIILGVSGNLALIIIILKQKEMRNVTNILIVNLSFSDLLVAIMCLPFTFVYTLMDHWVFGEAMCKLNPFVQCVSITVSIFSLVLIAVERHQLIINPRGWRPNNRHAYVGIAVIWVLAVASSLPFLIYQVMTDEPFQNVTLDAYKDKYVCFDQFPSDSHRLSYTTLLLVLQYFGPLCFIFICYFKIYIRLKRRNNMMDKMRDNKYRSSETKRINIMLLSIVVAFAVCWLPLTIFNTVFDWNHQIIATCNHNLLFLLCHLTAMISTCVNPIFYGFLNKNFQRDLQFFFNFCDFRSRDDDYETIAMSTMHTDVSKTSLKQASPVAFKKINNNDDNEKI
In short: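 Confluent SK-N-MC cells preincubated 30 min at room temperature in serum-free DMEM/25 mM HEPES pH 7.3 with BSA, bacitracin and PMSF, then incubated 3 h at room temperature with compound and ~50 pM [125I]PYY. Nonspecific binding defined with 1 μM NPY; bound radioactivity counted after Triton X-100 lysis.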

[7] = [125I]PYY, read-out: hNPY5 IC50
[8] = [125I]PYY, read-out: rNPY5 IC50

human Y4/PP1 receptor, sequence (P50391 whole entry): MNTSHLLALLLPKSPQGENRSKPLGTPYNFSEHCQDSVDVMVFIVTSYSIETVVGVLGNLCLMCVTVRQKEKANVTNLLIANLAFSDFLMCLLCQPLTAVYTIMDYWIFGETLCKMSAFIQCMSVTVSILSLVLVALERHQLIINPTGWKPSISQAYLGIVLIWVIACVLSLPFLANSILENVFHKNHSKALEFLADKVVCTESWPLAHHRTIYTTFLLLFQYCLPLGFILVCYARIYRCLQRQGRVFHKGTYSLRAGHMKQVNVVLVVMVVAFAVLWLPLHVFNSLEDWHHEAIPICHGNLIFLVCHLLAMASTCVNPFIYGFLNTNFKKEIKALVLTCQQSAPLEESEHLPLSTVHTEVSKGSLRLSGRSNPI

SMILES | IC50 ([1]; [125I]PYY) | IC50 [5] | IC50 [2, 7] | IC50 [3, 8] | IC50 [6] | melting point | further results
O=C(CN1CCC(O)(c2ccccc2)CC1)Nc1ccc(C2CCCCC2)cc1 [Compound 26, N-(4-Cyclohexyl-phenyl)-2-(4-hydroxy-4-phenyl-piperidin-1-yl)-acetamide] |  |  |  |  |  |  | IC50 ([1]; [125I]PYY binding): > 5 µM; IC50 ([2]; hNPY5 IC50, [125I]PYY binding): 0.093 µM; IC50 ([3]; rNPY5 IC50, [125I]PYY binding): 0.037 µM; activity at 10 µM ([4]; compound at 10 μM): 111%
CNC1(C(N)=O)CCN(CC(=O)Nc2ccc(C3CCCCC3)cc2)CC1 [Compound 30, 1-[(4-Cyclohexyl-phenylcarbamoyl)-methyl]-4-methylamino-piperidin-4-carboxylic acid amide] |  |  |  |  |  |  | IC50 ([1]; [125I]PYY binding): > 5 µM; IC50 ([2]; [125I]PYY binding, read-out: hNPY5 IC50): 0.06 µM; IC50 ([3]; [125I]PYY binding, read-out: rNPY5 IC50): 0.013 µM; activity at 10 µM ([4]; compound at 10 μM): 107%
Cc1ccc(OC(=O)c2ccc(NC(=O)CN3CCC(n4c(=O)[nH]c5ccccc54)CC3)cc2)cc1 [Compound 264, 4-{2-[4-(2-Oxo-2,3-dihydro-benzoimidazol-1-yl)-piperidin-1-yl]-acetylamino}-benzoic acid P-tolyl ester; hydrochloride] | > 5 µM | > 5 µM | 0.18 µM | 0.1 µM |  |  | activity at 10 µM ([4]; 10 μM): 139%
Cl.O=C(CN1CCC(n2c(=O)[nH]c3ccccc32)CC1)Nc1ccc(C(=O)C(=O)c2ccccc2)cc1 [Compound 265] |  |  |  |  |  |  | rNPY5 % FSAC (10 μM) ([4]; 10 μM): 90%
Cl.O=C(CN1CCC(n2c(=O)[nH]c3ccccc32)CC1)NCC1CCCCC1 [Compound 282, N-Cyclohexylmethyl-2-[4-(2-oxo-2,3-dihydro-benzoimidazol-1-yl)-piperidin-1-yl]-acetamide; hydrochloride] | > 5 µM | > 5 µM | 0.38 µM | 0.313 µM | > 5 µM | 196 to 197 °C | 
CC(C)OCCCNC(=O)CN1CCC(n2c(=O)[nH]c3ccccc32)CC1.Cl [Compound 283, N-(3-Isopropoxy-propyl)-2-[4-(2-oxo-2,3-dihydro-benzoimidazol-1-yl)-piperidin-1-yl]-acetamide; hydrochloride] | > 5 µM | > 5 µM | > 10 µM | > 10 µM | > 5 µM | 237 to 238 °C | 
COCCNC(=O)CN1CCC(n2c(=O)[nH]c3ccccc32)CC1 [Compound 284, N-(2-Methoxy-ethyl)-2-[4-(2-oxo-2,3-dihydro-benzoimidazol-1-yl)-piperidin-1-yl]-acetamide] | > 5 µM | > 5 µM | > 10 µM | > 10 µM | > 5 µM | 77 to 78 °C | 
